The source of these data is patent US9029404B2, “Apoptosis-inducing agents for the treatment of cancer and immune and autoimmune diseases” (AbbVie Inc., priority 2008, dated 2015).

SMILES strings stand for the structures.

GST-Bcl-2, sequence (P10415 whole entry): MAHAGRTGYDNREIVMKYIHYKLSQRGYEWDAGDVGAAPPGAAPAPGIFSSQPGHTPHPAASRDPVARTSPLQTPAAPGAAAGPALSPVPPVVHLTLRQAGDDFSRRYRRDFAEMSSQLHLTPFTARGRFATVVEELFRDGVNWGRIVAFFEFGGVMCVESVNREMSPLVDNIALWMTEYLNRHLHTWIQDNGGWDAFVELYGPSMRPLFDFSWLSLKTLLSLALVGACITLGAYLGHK

This experiment deals with GST-Bcl-2 (Homo sapiens, UniProt P10415). The experiment is described as follows: Time Resolved-Fluorescence Resonance Energy Transfer (TR-FRET) Bcl-2 binding assay. To be noted: competition with F-Bak peptide probe (100 nM); GST-Bcl-2 1 nM; Tb-anti-GST 1 nM; 3 hours at room temperature; Wang's equation. As to the method:
Determination of the utility of compounds having Formula (I) as binders to and inhibitors of anti-apoptotic Bcl-2 proteins was performed using the Time Resolved-Fluorescence Resonance Energy Transfer (TR-FRET) Assay. Tb-anti-GST antibody was purchased from Invitrogen (Catalog No. PV4216).
Representative compounds were serially diluted in dimethyl sulfoxide (DMSO) starting at 50 μM (2× starting concentration; 10% DMSO) and 10 μL were transferred into a 384-well plate. The samples are then mixed on a shaker for 1 minute and incubated for an additional 3 hours at room temperature. For each assay, the probe/antibody and protein/probe/antibody were included on each assay plate as negative and positive controls, respectively. Fluorescence was measured on the Envision (Perkin Elmer) using a 340/35 nm excitation filter and 520/525 (F-Bak peptide) and 495/510 nm (Tb-labeled anti-Histidine antibody) emission filters.
The samples were then mixed on a shaker for 1 minute and incubated for an additional 3 hours at room temperature. For each assay, the probe/antibody and protein/probe/antibody were included on each assay plate as negative and positive controls, respectively. Fluorescence was measured on the Envision (Perkin Elmer) using a 340/35 nm excitation filter and 520/525 (F-Bak peptide) and 495/510 nm (Tb-labeled anti-Histidine antibody) emission filters.
The inhibition constant (Ki) is the dissociation constant of an enzyme-inhibitor complex or a protein/small molecule complex, wherein the small molecule is inhibiting binding of one protein to another protein. So a large Ki value indicates a low binding affinity and a small Ki value indicates a high binding affinity.
On the technique in general: In TR-FRET formats the signal depends on donor and acceptor labels being close together.
For orientation: Ki means the dissociation constant of the complex between target and ligand, obtained from inhibition or displacement. For `CC1(C)CCC(CN2CCN(c3ccc(C(=O)NS(=O)(=O)c4ccc(OC[C@H]5CC[C@@](C)(O)CC5)c([N+](=O)[O-])c4)c(Oc4cnc(N)c(Cl)c4)c3)CC2)=C(c2ccc(Cl)cc2)C1` [Example 436, 2-[(6-amino-5-chloropyridin-3-yl)oxy]-4-(4-{[2-(4-chlorophenyl)-4,4-dimethylcyclohex-1-en-1-yl]methyl}piperazin-1-yl)-N-({4-[(cis-4-hydroxy-4-methylcyclohexyl)methoxy]-3-nitrophenyl}sulfonyl)benzamide], the inhibitory constant (Ki) is under 0.01 nM.
The value for `CN1CCC(C)(Nc2ccc(S(=O)(=O)NC(=O)c3ccc(N4CCN(CC5=C(c6ccc(Cl)cc6)CC(C)(C)CC5)CC4)cc3Oc3ccccc3Cl)cc2[N+](=O)[O-])CC1` [Example 168, 2-(2-chlorophenoxy)-4-(4-{[2-(4-chlorophenyl)-4,4-dimethylcyclohex-1-en-1-yl]methyl}piperazin-1-yl)-N-({4-[(1,4-dimethylpiperidin-4-yl)amino]-3-nitrophenyl}sulfonyl)benzamide] was 28.3 nM; that for `CC1(C)CCC(CN2CCN(c3ccc(C(=O)NS(=O)(=O)c4ccc(OCC5(F)CCN(C6COC6)CC5)c([N+](=O)[O-])c4)c(Oc4cnc(N)c(Cl)c4)c3)CC2)=C(c2ccc(Cl)cc2)C1` [Example 432, 2-[(6-amino-5-chloropyridin-3-yl)oxy]-4-(4-{[2-(4-chlorophenyl)-4,4-dimethylcyclohex-1-en-1-yl]methyl}piperazin-1-yl)-N-[(4-{[4-fluoro-1-(oxetan-3-yl)piperidin-4-yl]methoxy}-3-nitrophenyl)sulfonyl]benzamide] was under 0.01 nM.
The value for `CC1(C)CCC(CN2CCN(c3ccc(C(=O)NS(=O)(=O)c4ccc(OCC5(F)CCOCC5)c([N+](=O)[O-])c4)c(Oc4cc(F)cc5[nH]ncc45)c3)CC2)=C(c2ccc(Cl)cc2)C1` [Example 433, 4-(4-{[2-(4-chlorophenyl)-4,4-dimethylcyclohex-1-en-1-yl]methyl}piperazin-1-yl)-2-[(6-fluoro-1H-indazol-4-yl)oxy]-N-({4-[(4-fluorotetrahydro-2H-pyran-4-yl)methoxy]-3-nitrophenyl}sulfonyl)benzamide] was under 0.01 nM; that for `CC1(C)CCC(CN2CCN(c3ccc(C(=O)NS(=O)(=O)c4cnc(OCC5(F)CCOCC5)c(Cl)c4)c(Oc4cccc5[nH]nc(N)c45)c3)CC2)=C(c2ccc(Cl)cc2)C1` [Example 430, 2-[(3-amino-1H-indazol-4-yl)oxy]-N-({5-chloro-6-[(4-fluorotetrahydro-2H-pyran-4-yl)methoxy]pyridin-3-yl}sulfonyl)-4-(4-{[2-(4-chlorophenyl)-4,4-dimethylcyclohex-1-en-1-yl]methyl}piperazin-1-yl)benzamide] was under 0.01 nM.
As for `Cn1c(=O)[nH]c2cccc(Oc3cc(N4CCN(CC5=C(c6ccc(Cl)cc6)CC(C)(C)CC5)CC4)ccc3C(=O)NS(=O)(=O)c3cnc(OCC4CCOCC4)c(Cl)c3)c21` [Example 425, 4-(4-{[2-(4-chlorophenyl)-4,4-dimethylcyclohex-1-en-1-yl]methyl}piperazin-1-yl)-N-{[5-chloro-6-(tetrahydro-2H-pyran-4-ylmethoxy)pyridin-3-yl]sulfonyl}-2-[(3-methyl-2-oxo-2,3-dihydro-1H-benzimidazol-4-yl)oxy]benzamide], the affinity corresponds to a Ki of 0.013 nM.
`CC1(C)CC(c2ccc(Cl)cc2)=C(CN2CCN(c3ccc(C(=O)NS(=O)(=O)c4ccc(OCC5(F)CCOCC5)c([N+](=O)[O-])c4)c(Oc4cc5cc[nH]c5cc4F)c3)CC2)CO1` [Example 297, 4-(4-{[4-(4-chlorophenyl)-6,6-dimethyl-5,6-dihydro-2H-pyran-3-yl]methyl}piperazin-1-yl)-2-[(6-fluoro-1H-indol-5-yl)oxy]-N-({4-[(4-fluorotetrahydro-2H-pyran-4-yl)methoxy]-3-nitrophenyl}sulfonyl)benzamide] showed a Ki of under 0.01 nM.
The value for `CC1(C)CCC(CN2CCN(c3ccc(C(=O)NS(=O)(=O)c4ccc(OC[C@H]5CC[C@](C)(O)CC5)c([N+](=O)[O-])c4)c(Oc4cnc(N)c(Cl)c4)c3)CC2)=C(c2ccc(Cl)cc2)C1` [Example 441, 2-[(6-amino-5-chloropyridin-3-yl)oxy]-4-(4-{[2-(4-chlorophenyl)-4,4-dimethylcyclohex-1-en-1-yl]methyl}piperazin-1-yl)-N-({4-[(trans-4-hydroxy-4-methylcyclohexyl)methoxy]-3-nitrophenyl}sulfonyl)benzamide] was 0.054 nM.
The value for `CC1(C)CCC(CN2CCN(c3ccc(C(=O)NS(=O)(=O)c4ccc(OCC5(F)CCOCC5)c(Cl)c4)c(Oc4cc5cc[nH]c5cc4F)c3)CC2)=C(c2ccc(Cl)cc2)C1` [Example 412, N-({3-chloro-4-[(4-fluorotetrahydro-2H-pyran-4-yl)methoxy]phenyl}sulfonyl)-4-(4-{[2-(4-chlorophenyl)-4,4-dimethylcyclohex-1-en-1-yl]methyl}piperazin-1-yl)-2-[(6-fluoro-1H-indol-5-yl)oxy]benzamide] was 1.12 nM; that for `CC1(C)CCC(CN2CCN(c3ccc(C(=O)NS(=O)(=O)c4ccc(NC[C@H]5CC[C@H](C#N)CC5)c([N+](=O)[O-])c4)c(Oc4cnc(N)c(Cl)c4)c3)CC2)=C(c2ccc(Cl)cc2)C1` [Example 401, Trans-2-[(6-amino-5-chloropyridin-3-yl)oxy]-4-(4-{[2-(4-chlorophenyl)-4,4-dimethylcyclohex-1-en-1-yl]methyl}piperazin-1-yl)-N-[(4-{[(4-cyanocyclohexyl)methyl]amino}-3-nitrophenyl)sulfonyl]benzamide] was 0.035 nM.
With `O=C(NS(=O)(=O)c1cnc(OCC2(F)CCOCC2)c(Cl)c1)c1ccc(N2CCN(CC3=C(c4ccc(Cl)cc4)CCN(C(CF)CF)C3)CC2)cc1Oc1cc2cc[nH]c2cc1F` [Example 417, N-({5-chloro-6-[(4-fluorotetrahydro-2H-pyran-4-yl)methoxy]pyridin-3-yl}sulfonyl)-4-(4-{[4-(4-chlorophenyl)-1-(1,3-difluoropropan-2-yl)-1,2,5,6-tetrahydropyridin-3-yl]methyl}piperazin-1-yl)-2-[(6-fluoro-1H-indol-5-yl)oxy]benzamide], the Ki worked out at 6.88 nM.
The value for `CC1(C)CCC(CN2CCN(c3ccc(C(=O)NS(=O)(=O)c4ccc(NCC5CCC(C)(O)CC5)c([N+](=O)[O-])c4)c(Oc4cnc(N)c(Cl)c4)c3)CC2)=C(c2ccc(Cl)cc2)C1` (stereo not drawn) [Example 434, 2-[(6-amino-5-chloropyridin-3-yl)oxy]-4-(4-{[2-(4-chlorophenyl)-4,4-dimethylcyclohex-1-en-1-yl]methyl}piperazin-1-yl)-N-[(4-{[(trans-4-hydroxy-4-methylcyclohexyl)methyl]amino}-3-nitrophenyl)sulfonyl]benzamide] was under 0.01 nM.
The value for `CC1(C)CCC(CN2CCN(c3ccc(C(=O)NS(=O)(=O)c4ccc(NCC5CCOCC5)c([N+](=O)[O-])c4)c(Oc4cccc5[nH]nc(N)c45)c3)CC2)=C(c2ccc(Cl)cc2)C1` [Example 431, 2-[(3-amino-1H-indazol-4-yl)oxy]-4-(4-{[2-(4-chlorophenyl)-4,4-dimethylcyclohex-1-en-1-yl]methyl}piperazin-1-yl)-N-({3-nitro-4-[(tetrahydro-2H-pyran-4-ylmethyl)amino]phenyl}sulfonyl)benzamide] was under 0.01 nM; that for `Cn1c(=O)[nH]c2cccc(Oc3cc(N4CCN(CC5=C(c6ccc(Cl)cc6)CC(C)(C)CC5)CC4)ccc3C(=O)NS(=O)(=O)c3ccc(NCC4CN(C5CC5)CCO4)c([N+](=O)[O-])c3)c21` (stereo not shown) [Example 439, 4-(4-{[2-(4-chlorophenyl)-4,4-dimethylcyclohex-1-en-1-yl]methyl}piperazin-1-yl)-N-[(4-{[(4-cyclopropylmorpholin-2-yl)methyl]amino}-3-nitrophenyl)sulfonyl]-2-[(3-methyl-2-oxo-2,3-dihydro-1H-benzimidazol-4-yl)oxy]benzamide] was under 0.01 nM; that for `CC1(C)CCC(CN2CCN(c3ccc(C(=O)NS(=O)(=O)c4ccc(NCC5CN(C6COC6)CCO5)c([N+](=O)[O-])c4)c(Oc4cnc(N)c(Cl)c4)c3)CC2)=C(c2ccc(Cl)cc2)C1` (stereo not shown) [Example 421, 2-[(6-amino-5-chloropyridin-3-yl)oxy]-4-(4-{[2-(4-chlorophenyl)-4,4-dimethylcyclohex-1-en-1-yl]methyl}piperazin-1-yl)-N-{[3-nitro-4-({[4-(oxetan-3-yl)morpholin-2-yl]methyl}amino)phenyl]sulfonyl}benzamide] was under 0.01 nM.
The value for `CC1(C)CCC(CN2CCN(c3ccc(C(=O)NS(=O)(=O)c4ccc(OCC5(F)CCOCC5)c([N+](=O)[O-])c4)c(Oc4cccc5[nH]nc(N)c45)c3)CC2)=C(c2ccc(Cl)cc2)C1` [Example 429, 2-[(3-amino-1H-indazol-4-yl)oxy]-4-(4-{[2-(4-chlorophenyl)-4,4-dimethylcyclohex-1-en-1-yl]methyl}piperazin-1-yl)-N-({4-[(4-fluorotetrahydro-2H-pyran-4-yl)methoxy]-3-nitrophenyl}sulfonyl)benzamide] was under 0.01 nM.
